Test results reported in paper PMC12216609, “Inhibitors of eIF1A-ribosome interaction unveil uORF-dependent regulation of translation initiation and antitumor and antiviral effects” (The EMBO Journal, 2025).
Where “and” joins values, the source holds several entries; their conditions need not be identical. Equal values may be shown once.

How the values were obtained:
[1] = tested on: IRF7 5'UTR firefly luciferase reporter in HEK293T cells; details: 20 µM;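 also: luciferase signal corrected by a co-transfected GFP reporter for transfection efficiency, read after overnight compound exposure, with Long and Short reporters differing in 5'UTR length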
eIF1A-RPS10 interaction = target: T1, eIF1A-RPS10 interaction (Homo sapiens, UniProt P46783+P47813); test: Split-Renilla luciferase eIF1A-RPS10 interaction screen, dose-response; type: biochemical; details: Appendix Table S1; read-out: IC50 from the split RL screen
T1 construct: made in house; host or cells: E. coli BL21 (PRSFduet); unpurified lysate supernatant
Method: While knockdown (KD) studies of eIF1A provided valuable insights into its role in mammalian cell translation (Sehrawat et al, [2019]), this approach presents several limitations. First, it fails to elucidate the functional significance of the opposing functions of eIF1A N- and C-terminal tails with respect to scanning and start codon fidelity. Second, the extended duration required for achieving efficient knockdown, 48–72 h, impairs our ability to differentiate between direct and indirect effects. To overcome these constraints, we set out to develop small-molecule inhibitors targeting eIF1A. Guided by structural and biochemical studies showing eIF1A binding to the small ribosomal subunit at the A-site and interacting directly with RPS10 through its N-terminal tail (Haimov et al, [2017]; Passmore et al, [2007]; Sehrawat et al, [2019]), our approach focused on disrupting the interaction between eIF1A and RPS10. […] The interaction between eIF1A and RPS10 brings the two parts together, leading to the reconstitution of the enzymatic activity (Haimov et al, [2017]). In this system, the spatial arrangement of the two RL parts is critical for the enzymatic activity, making it sensitive not only to direct interference with the interacting proteins but also to changes in the conformation of the fused proteins. In the eIF1A-RPS10 split-RL pair, the C-terminus of eIF1A is fused to N-RL (Fig. 1A), in order to maintain the NTT accessible to RPS10 binding. This pair was cloned and expressed in bacteria as recombinant proteins and used to screen a library of ~50,000 small molecules from diverse sources (Ashkenazi et al, [2017]).
eIF1A-ΔC-Renilla and RPS10-ΔN-Renilla were transformed into BL21 E. coli by heat shock transformation. A bacterial starter of 5 ml LB was incubated overnight at 37 °C and transferred into 1 L LB for incubation at 37 °C until OD ~ 0.5–0.7. Next, protein expression was induced with 0.5 mM IPTG, and bacterial cells were incubated overnight at 16 °C. Bacterial cell pellet was collected after centrifugation (3000 RPM, 15 min), resuspended in 20 ml TKE buffer (Tris 10 mM, KCl 100 mM, EDTA 0.1 mM), sonicated (bath sonicator, 24 cycles of 30 s) and centrifuged again (15000 RPM, 30 min). Supernatants were collected, analyzed for RL activity, and then used for high throughput drug screen (HTS) at the Weizmann G-INCPM HTS unit as described (Ashkenazi et al, [2017]). In addition to the standard controls of this protocol, the two parts of the split RL, without eIF1A or RPS10, were tested as controls. Selected compounds were purchased from Sigma-Aldrich and Enamine. Compound powders were resuspended in DMSO for a final concentration of 10 mM and stored at −20 °C.

[2] = tested on: CUG/GUG vs AUG start codon luciferase reporters in HEK293T cells; test: Near-cognate AUG starting codon fidelity reporter assay (GUG, CUG vs AUG); type: cell-based; details: for CUG vs AUG (%): CUG start codon reporter relative to AUG reporter (AUG = 100); for CUG vs AUG (%) / GUG vs AUG (%): single-experiment calculation; for GUG vs AUG (%): GUG start codon reporter relative to AUG reporter (AUG = 100)
Method: We next considered the importance of eIF1A in controlling start codon fidelity in yeast and mammalian cells (Martin-Marcos et al, [2011]; Martin-Marcos et al, [2017]; Sehrawat et al, [2019]; She et al, [2023]) and tested how inhibition of eIF1A by 1Ais affects the initiation from near-cognate AUG. The effect of 1Ais was analyzed using firefly luciferase reporters bearing either AUG (control), CUG, or GUG as the exclusive translation initiation sites. Co-transfected GFP reporter served as an internal control for transfection efficiency.
For the near-cognate AUG Starting codon fidelity reporter assay, HEK293T cells were transfected with 100 ng of the previously described luciferase reporter constructs driven either by AUG, CUG, and GUG (Tang et al, [2017]) together with GFP expressing plasmid (20 ng) as normalizing control. Luciferase and GFP levels were determined as described above.
Appendix Figure S1: (A) HEK293T cells were transfected with Luciferase reporter genes with either CUG or AUG as their exclusive starting codon. 6 hours after transfection, cells were exposed to 1Ais, and the luminescence from all constructs was measured after overnight incubation. Bars represent the ratio between luminescence from the AUG starting codon and CUG after normalization with co-transfected GFP; Error bars represent SEM, * denotes p<0.05 (T-test comparing to DMSO control), n=≥4 independent biological replicates.

[3] = tested on: cap-proximal AUG GFP reporter in HEK293T cells; type: cell-based; details: GFP WB densitometry; 20 µM overnight; dmso 0.965946
Description: Translation from an AUG preceded by a very short 5'UTR (less than 30 nt) is usually inefficient and frequently bypassed, resulting in initiation from a downstream AUG, a phenomenon known as leaky scanning. […] To examine the impact of 1Ais on short 5'UTR initiation, we used a GFP reporter gene containing an AUG located 16 nt downstream from the 5' end followed by a second in-frame downstream AUG (Fig. 1F; Appendix Fig. S1B). Cells were transfected with this GFP reporter gene followed by exposure to DMSO (vehicle) and 1Ais. Initiations from upstream (US) or downstream (DS) AUGs were determined by western blot (WB) with anti-GFP antibodies and the ratio between the US and DS AUG was determined.
For the analysis of translation from very short 5'UTR and Leaky scanning, HEK293T cells were transfected with a GFP (20 ng/well) reporter gene driven by a cap-proximal and downstream AUGs (Elfakess et al, [2011]) together with a luciferase reporter gene (100 ng/well) as normalizing control and treated with 20 µM of 1Ais as described above. GFP levels were determined by Western blot (WB) (GFP antibody, Abcam #ab290) and quantified by densitometry (ImageJ) and normalized to the measured luciferase activity.
HEK293T cells were transfected with the GFP reporter gene schematically shown on the top. The first
AUG is […] from the 5’ end and the downstream AUG is in the same frame. Six hours after transfection, cells were treated with 1Ais. After overnight exposure to 1Ais, GFP expression was analyzed by WB using anti -GFP antibodies.
US/DS ratio was determined by densitometry and represents the long protein expression (upstream AUG, US) vs the […]
biological replicates. (C-D) Analysis of reporter genes mRNA levels after 1Ais treatment.

[4] = tested on: uORF-bearing 5'UTR firefly reporters in HEK293T cells; test: uORF reinitiation / leaky scanning firefly reporters; details: for averages of FF vs RL / FF vs RL / averages of FF vs RL 2 / FF vs RL 2: 95nt experiment; for averages of FF vs RL 2 / FF vs RL 2: block FF-2 (c113); for 95nt from uORF to main ORF experiment, minus 95nt, average (DMSO = 1): minus 95nt reporter
Description: (M) The reference and uORF-bearing reporters were transfected to HEK293T cells together with RL, which served to normalize translation efficiency. The reporter activities are represented as firefly vs RL; n ≥3 independent biological replicates, error bars represent SEM. *P < 0.05, **P < 0.01, Student t test. (N) Firefly Reporters (J) were transfected to HEK293T cells together with normalizing RL. […] Results are represented as firefly vs. RL normalized to DMSO in each biological replicate; n = 4, error bars represent SEM. *P < 0.05, **P < 0.01, Student t test.
In the first and second, we inserted an out-of-frame uAUG 46 or 95 nucleotides before the main ORF, respectively, followed by a downstream stop codon generating an uORF of 10 amino acids. In these constructs, the translation from the main ORF could be either by reinitiation or leaky scanning. In the third construct, this out of frame uAUG lacks a stop codon, causing initiation from the main ORF to exclusively occur via leaky scanning (Fig. 4L). These reporters were transfected into HEK293T cells together with RL luciferase reporter for normalizing transfection efficiency. […] We next examined these reporters in the presence of 1Ais.

[5] = compound at 20uM (summary head)

T1 sequence (P47813 whole entry, one chain of several): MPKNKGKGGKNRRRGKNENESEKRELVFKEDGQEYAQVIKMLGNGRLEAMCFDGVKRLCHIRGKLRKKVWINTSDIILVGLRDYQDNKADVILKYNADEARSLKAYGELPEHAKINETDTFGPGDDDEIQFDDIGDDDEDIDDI

Structure (SMILES): O=C1c2ccccc2NC(c2cc(Cl)c3c(c2)OCO3)N1C1CC1 (centres unmarked) [1Ai-6586]
- LONG (summary - All), normalized to DMSO ([1]; Long reporter, individual replicates, outliers excluded, DMSO = 1): 0.0557 and 0.45 and 1.19 and 0.73
- SHORT (summary - All), normalized to DMSO ([1]; Short reporter, individual replicates, outliers excluded, DMSO = 1): 0.06 and 0.81 and 0.69 and 1.23
- average ( long vs short ratio) ([1]; summary - All): 0.871
- IC50 (eIF1A-RPS10 interaction): 24 µM
- CUG vs AUG (%) [2, 5]: 6.859%
- GUG vs AUG (%) [2, 5]: 1.078%
- GUG vs AUG data (%) ([2]; compound at 20uM, individual repeat): 1.26% and 0.96% and 1.21% and 1.81%
- GUG vs AUG (%) Average ([2]; compound at 20uM, summary average of repeats, DMSO control average […]): 1.31%
- US/DS ratio, average [3]: 0.8389

Structure (SMILES): O=C1c2ccccc2NC(c2cc(O)c(O)c(Cl)c2)N1c1ccccc1 (centres unmarked) [1A-8214]
- averages of FF vs RL ([4]; block FF-1 (c104), reporter minus46, DMSO 0.0248618): 0.02612
- FF vs RL ([4]; block FF-1 (c104), reporter minus 46, DMSO 2.74E-02, 2.23E-02): 2.94E-02 and 2.28E-02
- FF vs RL ([4]; block FF-1 (c104), reporter minus 46 plus 50, DMSO 2.94E-02, 2.09E-02): 1.20E-02 and 1.67E-02
- averages of FF vs RL ([4]; block FF-1 (c104), reporter minus 95, DMSO 0.0251627): 0.01437
- averages of FF vs RL ([4]; block FF-1 (c104), reporter ref, DMSO 0.0298915): 0.04961
- FF vs RL ([4]; block FF-1 (c104), reporter reference, DMSO 2.79E-02, 3.19E-02): 6.51E-02 and 3.41E-02
- FF vs RL ([4]; block FF-1 (c131), reporter minus 46, DMSO 0.17626, 0.185518): 0.2074 and 0.2118
- averages of FF vs RL ([4]; block FF-1 (c131), reporter minus46, DMSO 0.180889): 0.2096
- FF vs RL ([4]; block FF-1 (c131), reporter minus 46 plus 50, DMSO 0.437858, 0.481275): 0.464 and 0.5005
- averages of FF vs RL ([4]; block FF-1 (c131), reporter minus 95, DMSO 0.459566): 0.4822
- averages of FF vs RL ([4]; block FF-1 (c131), reporter ref, DMSO 0.345569): 0.2779
- FF vs RL ([4]; block FF-1 (c131), reporter reference, DMSO 0.39984, 0.291299): 0.281 and 0.2748
- averages of FF vs RL 2 ([4]; reporter minus46, DMSO 0.0506669): 0.04195
- FF vs RL 2 ([4]; reporter minus 46, DMSO 3.43E-02, 5.07E-02): 4.79E-02 and 3.60E-02
- FF vs RL 2 ([4]; reporter minus 46 plus 50, DMSO 3.05E-02, 1.38E-02): 1.96E-02 and 1.61E-02
- averages of FF vs RL 2 ([4]; reporter minus 95, DMSO 0.0221428): 0.01783
- averages of FF vs RL 2 ([4]; reporter ref, DMSO 0.0383109): 0.05624
- FF vs RL 2 ([4]; reporter reference, DMSO 3.69E-02, 3.97E-02): 6.80E-02 and 4.45E-02
- reporter activity norm to DMSO, minus46 ([4]; minus46 reporter, 95nt from uORF to main ORF experiment, Figure 4N source data, replicate experiments, DMSO = 1): 0.8043 and 1.051 and 0.8279
- 95nt from uORF to main ORF experiment, minus46, average (DMSO = 1) ([4]; minus46 reporter): 0.8942
- reporter activity norm to DMSO, minus 95 ([4]; minus 95 (nt) reporter, 95nt from uORF to main ORF experiment, Figure 4N source data, replicate experiments, DMSO = 1): 1.049 and 0.5709 and 0.8051
- 95nt from uORF to main ORF experiment, minus 95nt, average (DMSO = 1) [4]: 0.8085
- reporter activity norm to DMSO, ref ([4]; ref reporter, 95nt from uORF to main ORF experiment, Figure 4N source data, replicate experiments, DMSO = 1): 1.159 and 1.66 and 1.468
- 95nt from uORF to main ORF experiment, ref, average (DMSO = 1) ([4]; ref reporter): 1.429

Structure (SMILES): O=C(Nc1nc(-c2c[nH]c3ccccc23)cs1)c1cc(=O)[nH]c2ccccc12 [compound 403]
- CUG vs AUG (%) ([2]; compound at 5uM (summary head)): 8.469%
- GUG vs AUG (%) ([2]; compound at 5uM (summary head)): 1.79%

Structure (SMILES): O=C(COc1ccccc1[N+](=O)[O-])NCc1ccc(-c2ccc(Br)cc2)o1 [1A-4700]
- firefly/Renilla normalized to DMSO, minus46 reporter ([4]; 95nt from uORF to main ORF experiment summary, experiment 240919, reporter minus46, DMSO = 1): 0.3368 and 0.3707
- firefly/Renilla normalized to DMSO, minus 95nt reporter ([4]; 95nt from uORF to main ORF experiment summary, experiment 240919, reporter minus 95nt, DMSO = 1): 1.123 and 1.106
- firefly/Renilla normalized to DMSO, ref reporter ([4]; 95nt from uORF to main ORF experiment summary, experiment 240919, reporter ref, DMSO = 1): 0.8256 and 0.6094
- 95nt from uORF to main ORF experiment, minus46, average (DMSO = 1) ([4]; minus46 reporter): 0.3537
- 95nt from uORF to main ORF experiment, minus 95nt, average (DMSO = 1) [4]: 1.115
- 95nt from uORF to main ORF experiment, ref, average (DMSO = 1) ([4]; ref reporter): 0.7175
